Test results taken from ChEMBL document CHEMBL1149060, “Structure of malhamensilipin A, an inhibitor of protein tyrosine kinase, from the cultured chrysophyte Poterioochromonas malhamensis” (J Nat Prod, 1994).

Assay: Inhibition of Rous sarcoma virus pp60v-src

Work on `CCCCCCCCC(Cl)C(Cl)C(O)C(Cl)C(Cl)C(Cl)CCCCCCCC/C(Cl)=C\OS(=O)(=O)O` (stereo unspecified) [MALHAMENSILIPIN A] yielded an IC50 of 35 µM.
